Reference: US11713309B2, “Solid forms of Cerdulatinib” (Alexion Pharmaceuticals, Inc., priority 2018, dated 2023)
In brackets after ≈: the same amount, converted by molar mass.

Experiments:
Format in all cases: physicochemical
[1] = Kinetic solubility in FaSSIF; conditions: for Solubility (mg/mL) 1 h / Solubility (mg/mL) 2 h / Solubility (mg/mL) 4 h / Solubility (mg/mL) 24 h: 37° C.; for Solubility (mg/mL) 1 h: drug loading ~10 mg/mL as freebase; for pH 1 h / pH 2 h / pH 4 h / pH 24 h: supernatant, FaSSIF (native pH 6.5)
Experimental: (§1) Kinetic solubility testing was conducted as follows: About 40-55 mg material was weighed into a 5-mL EP pipe. 4 mL of water/bio-relevant media (SGF, FaSSIF, or FeSSIF) was added into the corresponding sample pipe (drug loading: ˜10 mg/mL calculated as freebase). The pipes were capped tightly and the material was verified to be in contact with the media. The sample vials were placed on a roller and start rolling at 37° C. (rate: 25 r/min). Samples were taken at 1, 2, 4, 24 h. For each time point, 1.0 mL of suspension was transferred into a 2-mL centrifuge tube and the samples were centrifuged. The supernatant was filtered via 0.45 μm PTFE membrane and solubility and pH were measured. An XRPD test on residual solids was conducted.

[2] = Kinetic solubility in FeSSIF; conditions: for Solubility (mg/mL) 1 h / Solubility (mg/mL) 2 h / Solubility (mg/mL) 4 h / Solubility (mg/mL) 24 h: 37° C.; for Solubility (mg/mL) 1 h: drug loading ~10 mg/mL as freebase; for Final Form: XRPD of residual solids; for Solubility (mg/mL) 1 h / Final Form / pH 1 h: 1 h; for Solubility (mg/mL) 2 h / Final Form / pH 2 h: 2 h; for Solubility (mg/mL) 4 h / Final Form / pH 4 h: 4 h; for pH 1 h / pH 2 h / pH 4 h / pH 24 h: supernatant
Experimental: as §1

[3] = Kinetic solubility in SGF; conditions: for Solubility (mg/mL) 1 h / Solubility (mg/mL) 2 h / Solubility (mg/mL) 4 h / Solubility (mg/mL) 24 h: SGF, 37° C.; for Solubility (mg/mL) 1 h: drug loading ~10 mg/mL as freebase; for pH 1 h / pH 2 h / pH 4 h / pH 24 h: supernatant, SGF (native pH 1.8)
Experimental: as §1

[4] = Kinetic solubility in water; conditions: 37° C.; for pH of supernatant: water (native pH 7.6)
Experimental: as §1

[5] = 1 h, listed as Naphthalene disulfonate Type A
[6] = 2 h, listed as Naphthalene disulfonate Type A
[7] = 4 h, listed as Naphthalene disulfonate Type A
[8] = 24 h, listed as Naphthalene disulfonate Type A
[9] = listed as Naphthalene disulfonate Type A
[10] = 1 h, listed as Isethionate Type A
[11] = 2 h, listed as Isethionate Type A
[12] = 4 h, listed as Isethionate Type A
[13] = 24 h, listed as Isethionate Type A

CCS(=O)(=O)N1CCN(c2ccc(Nc3ncc(C(N)=O)c(NC4CC4)n3)cc2)CC1 [4-(cyclopropylamino)-2-(4-(4-(ethylsulfonyl)piperazin-1-yl)phenylamino)pyrimidine-5-carboxamide]
Solubility (mg/mL) 1 h ([1]; FaSSIF, 1 h, listed as Naphthalene disulfonate Type A): 0.0035 mg/mL (≈ 7.86 µM)
Solubility (mg/mL) 2 h ([1]; FaSSIF, 2 h, listed as Naphthalene disulfonate Type A): 0.0037 mg/mL (≈ 8.3 µM)
Solubility (mg/mL) 4 h ([1]; FaSSIF, 4 h, listed as Naphthalene disulfonate Type A): 0.0030 mg/mL (≈ 6.73 µM)
Solubility (mg/mL) 24 h ([1]; FaSSIF, 24 h, listed as Naphthalene disulfonate Type A): 0.0027 mg/mL (≈ 6.06 µM)
Final Form ([1]; XRPD of residual solids, FaSSIF, 1 h, 2 h, 4 h, 24 h, listed as Naphthalene disulfonate Type A): New form X
pH 1 h [1, 5]: 2.8
pH 2 h [1, 6]: 2.7
pH 4 h [1, 7]: 2.6
pH 24 h [1, 8]: 2.5
Solubility (mg/mL) 1 h [2, 9]: 0.0088 mg/mL (≈ 19.8 µM)
Solubility (mg/mL) 2 h [2, 9]: 0.0079 mg/mL (≈ 17.7 µM)
Solubility (mg/mL) 4 h [2, 9]: 0.0069 mg/mL (≈ 15.5 µM)
Solubility (mg/mL) 24 h [2, 8]: 0.0059 mg/mL (≈ 13.2 µM)
Final Form [2, 8]: New form X
pH 1 h [2, 9]: 4.6
pH 2 h [2, 9]: 4.6
pH 4 h [2, 9]: 4.6
pH 24 h [2, 8]: 4.6
Solubility (mg/mL) 1 h [3, 9]: 0.019 mg/mL (≈ 42.6 µM)
Solubility (mg/mL) 2 h [3, 9]: 0.016 mg/mL (≈ 35.9 µM)
Solubility (mg/mL) 4 h [3, 9]: 0.018 mg/mL (≈ 40.4 µM)
Solubility (mg/mL) 24 h [3, 9]: 0.016 mg/mL (≈ 35.9 µM)
pH 1 h [3, 9]: 2.0
pH 2 h [3, 9]: 1.9
pH 4 h [3, 9]: 2.0
pH 24 h [3, 9]: 1.8
pH of supernatant [4, 5]: 2.8
pH of supernatant [4, 6]: 2.6
pH of supernatant [4, 7]: 2.5
pH of supernatant [4, 8]: 2.4
Kinetic solubility ([4]; water, 1 h, listed as Naphthalene disulfonate Type A): 1.4 µg/mL
Kinetic solubility ([4]; water, 2 h, listed as Naphthalene disulfonate Type A): 2.5 µg/mL
Kinetic solubility ([4]; water, 4 h, listed as Naphthalene disulfonate Type A): 1.5 µg/mL
Kinetic solubility ([4]; water, 24 h, listed as Naphthalene disulfonate Type A): 1.6 µg/mL

CCS(=O)(=O)N1CCN(c2ccc(Nc3ncc(C(N)=O)c(NC4CC4)n3)cc2)CC1 [Compound I isethionate Type A, 4-(cyclopropylamino)-2-(4-(4-(ethylsulfonyl)piperazin-1-yl)phenylamino)pyrimidine-5-carboxamide]
Solubility (mg/mL) 1 h ([1]; FaSSIF, 1 h, listed as Isethionate Type A): 0.020 mg/mL
Solubility (mg/mL) 2 h ([1]; FaSSIF, 2 h, listed as Isethionate Type A): 0.026 mg/mL
Solubility (mg/mL) 4 h ([1]; FaSSIF, 4 h, listed as Isethionate Type A): 0.018 mg/mL
Solubility (mg/mL) 24 h ([1]; FaSSIF, 24 h, listed as Isethionate Type A): 0.015 mg/mL
pH 1 h [1, 10]: 3.9
pH 2 h [1, 11]: 3.9
pH 4 h [1, 12]: 3.9
pH 24 h [1, 13]: 3.9
Solubility (mg/mL) 1 h ([2]; listed as Isethionate Type A): 0.0058 mg/mL
Solubility (mg/mL) 2 h ([2]; listed as Isethionate Type A): 0.0053 mg/mL
Solubility (mg/mL) 4 h ([2]; listed as Isethionate Type A): 0.0052 mg/mL
Solubility (mg/mL) 24 h [2, 13]: 0.0054 mg/mL
Final Form ([2]; 24 h (merged cell), listed as Isethionate Type A): Freebase Form II
pH 1 h ([2]; listed as Isethionate Type A): 4.6
pH 2 h ([2]; listed as Isethionate Type A): 4.7
pH 4 h ([2]; listed as Isethionate Type A): 4.7
pH 24 h [2, 13]: 4.6
Solubility (mg/mL) 1 h ([3]; listed as Isethionate Type A): 0.077 mg/mL
Solubility (mg/mL) 2 h ([3]; listed as Isethionate Type A): 0.081 mg/mL
Solubility (mg/mL) 4 h ([3]; listed as Isethionate Type A): 0.073 mg/mL
Solubility (mg/mL) 24 h ([3]; listed as Isethionate Type A): 0.069 mg/mL
pH 1 h ([3]; listed as Isethionate Type A): 1.9
pH 2 h ([3]; listed as Isethionate Type A): 1.9
pH 4 h ([3]; listed as Isethionate Type A): 2.1
pH 24 h ([3]; listed as Isethionate Type A): 2.0
pH of supernatant [4, 10]: 2.1
pH of supernatant [4, 11]: 2.0
pH of supernatant [4, 12]: 2.1
pH of supernatant [4, 13]: 2.1
Final Form of residual solids (XRPD) ([4]; water, 1 h, 2 h, 4 h, 24 h, listed as Isethionate Type A): Freebase Form II
Kinetic solubility ([4]; water, 1 h, listed as Isethionate Type A): 1500 µg/mL
Kinetic solubility ([4]; water, 2 h, listed as Isethionate Type A): 1300 µg/mL
Kinetic solubility ([4]; water, 4 h, listed as Isethionate Type A): 1300 µg/mL
Kinetic solubility ([4]; water, 24 h, listed as Isethionate Type A): 1200 µg/mL
